Assay results from ChEMBL document CHEMBL4414679, “Discovery of 4,6-pyrimidinediamine derivatives as novel dual EGFR/FGFR inhibitors aimed EGFR/FGFR1-positive NSCLC” (Eur J Med Chem, 2020).
Activity calls are given as the source filed them. No cut-off for these calls is given here.

Tests used:
[1] = tested on: Epidermal growth factor receptor (Homo sapiens), P00533 [L858R]; assay: Inhibition of recombinant human EGFR L858R mutant expressed in baculovirus at 10 uM using FAM-labelled peptide as substrate pre-incubated for 10 mins followed by substrate addition by mobility shift assay relative to control
Epidermal growth factor receptor (Homo sapiens), P00533 [L858R], sequence (P00533 whole entry L858R): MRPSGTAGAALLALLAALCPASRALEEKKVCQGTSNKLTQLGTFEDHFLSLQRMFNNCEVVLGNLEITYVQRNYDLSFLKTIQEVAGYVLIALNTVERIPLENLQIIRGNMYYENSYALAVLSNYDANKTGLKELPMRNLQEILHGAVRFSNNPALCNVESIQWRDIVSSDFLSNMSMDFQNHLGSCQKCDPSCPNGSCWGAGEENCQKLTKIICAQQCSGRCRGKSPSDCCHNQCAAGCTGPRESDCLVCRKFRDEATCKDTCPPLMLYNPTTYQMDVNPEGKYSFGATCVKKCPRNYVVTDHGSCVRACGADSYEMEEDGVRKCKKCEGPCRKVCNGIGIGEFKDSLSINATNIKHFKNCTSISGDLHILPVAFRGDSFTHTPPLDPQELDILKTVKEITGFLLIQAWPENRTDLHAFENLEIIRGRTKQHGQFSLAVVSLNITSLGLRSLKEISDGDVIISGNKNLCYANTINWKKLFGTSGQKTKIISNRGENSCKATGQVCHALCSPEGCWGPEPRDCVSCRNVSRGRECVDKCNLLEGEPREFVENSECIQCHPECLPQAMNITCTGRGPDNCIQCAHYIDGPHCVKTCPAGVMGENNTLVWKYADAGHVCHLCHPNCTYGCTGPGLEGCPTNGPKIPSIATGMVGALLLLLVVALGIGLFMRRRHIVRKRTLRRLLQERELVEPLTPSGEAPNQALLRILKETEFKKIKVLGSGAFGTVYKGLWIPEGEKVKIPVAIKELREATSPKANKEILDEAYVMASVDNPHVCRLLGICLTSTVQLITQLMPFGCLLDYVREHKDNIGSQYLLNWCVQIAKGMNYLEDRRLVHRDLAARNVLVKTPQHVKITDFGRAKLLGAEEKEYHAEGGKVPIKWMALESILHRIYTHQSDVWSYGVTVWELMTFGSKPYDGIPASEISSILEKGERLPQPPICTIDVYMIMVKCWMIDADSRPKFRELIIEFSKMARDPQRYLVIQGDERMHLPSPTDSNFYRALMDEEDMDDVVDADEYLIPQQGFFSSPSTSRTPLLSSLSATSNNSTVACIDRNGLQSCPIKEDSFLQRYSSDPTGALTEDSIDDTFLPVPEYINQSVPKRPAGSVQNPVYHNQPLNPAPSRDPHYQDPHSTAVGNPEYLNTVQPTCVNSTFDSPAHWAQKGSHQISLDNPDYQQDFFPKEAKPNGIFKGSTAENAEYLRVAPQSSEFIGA

NCI-H226 [2] = assay: Antiproliferative activity against human NCI-H226 cells incubated for 48 hrs by MTT assay; type: functional, cell-based; settings: NCI-H226, 48 h
[3] = target: T1, Epidermal growth factor receptor (Homo sapiens, UniProt P00533); assay: Inhibition of N-terminal GST-tagged human EGFR (d746-750AA) expressed in baculovirus at 10 uM using FAM-labelled peptide as substrate pre-incubated for 10 mins followed by substrate addition by mobility shift assay relative to control
T1 sequence (P00533 whole entry): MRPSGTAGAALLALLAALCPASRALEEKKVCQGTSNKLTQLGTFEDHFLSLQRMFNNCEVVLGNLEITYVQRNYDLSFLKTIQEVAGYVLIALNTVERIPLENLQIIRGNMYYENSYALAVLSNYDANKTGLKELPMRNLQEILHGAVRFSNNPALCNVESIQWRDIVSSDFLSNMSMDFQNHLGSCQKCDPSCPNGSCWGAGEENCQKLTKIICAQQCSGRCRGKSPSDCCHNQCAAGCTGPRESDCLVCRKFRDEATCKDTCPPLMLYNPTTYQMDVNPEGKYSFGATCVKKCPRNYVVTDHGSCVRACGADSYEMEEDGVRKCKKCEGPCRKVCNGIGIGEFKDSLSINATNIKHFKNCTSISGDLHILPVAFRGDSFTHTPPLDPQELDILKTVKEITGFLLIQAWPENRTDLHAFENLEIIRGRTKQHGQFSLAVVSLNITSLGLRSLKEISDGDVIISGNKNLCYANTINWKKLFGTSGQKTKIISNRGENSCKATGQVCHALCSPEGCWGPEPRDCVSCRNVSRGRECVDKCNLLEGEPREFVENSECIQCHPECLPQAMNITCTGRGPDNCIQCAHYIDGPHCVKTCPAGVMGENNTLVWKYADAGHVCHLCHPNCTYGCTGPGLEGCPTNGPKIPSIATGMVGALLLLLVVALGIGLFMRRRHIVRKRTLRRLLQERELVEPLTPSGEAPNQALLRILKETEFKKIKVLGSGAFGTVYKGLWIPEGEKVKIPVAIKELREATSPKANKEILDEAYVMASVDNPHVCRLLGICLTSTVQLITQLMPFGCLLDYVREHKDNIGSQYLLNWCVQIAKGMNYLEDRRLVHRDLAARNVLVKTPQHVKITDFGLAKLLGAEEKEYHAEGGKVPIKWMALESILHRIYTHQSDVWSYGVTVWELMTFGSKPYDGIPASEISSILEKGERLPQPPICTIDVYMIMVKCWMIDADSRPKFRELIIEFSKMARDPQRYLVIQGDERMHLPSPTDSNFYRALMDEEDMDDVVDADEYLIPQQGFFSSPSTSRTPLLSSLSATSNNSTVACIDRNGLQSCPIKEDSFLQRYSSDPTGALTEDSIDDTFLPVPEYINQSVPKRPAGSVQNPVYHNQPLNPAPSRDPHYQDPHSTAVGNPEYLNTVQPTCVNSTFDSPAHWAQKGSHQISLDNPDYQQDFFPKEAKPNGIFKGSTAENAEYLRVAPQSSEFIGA

NCI-H1581 [4] = assay: Antiproliferative activity against human NCI-H1581 cells assessed as inhibition of cell growth at 10 uM incubated for 48 hrs by MTT assay relative to control; type: functional; settings: NCI-H1581, 48 h
[5] = target: T2, Fibroblast growth factor receptor 1 (Homo sapiens, UniProt P11362); assay: Inhibition of N-terminal GST-tagged human FGFR1 cytoplasmic domain (398-822 AA) expressed in baculovirus at 10 uM using FAM-labelled peptide as substrate pre-incubated for 10 mins followed by substrate addition by mobility shift assay relative to control
Target sequence in this assay (P11362 22-822 limits assumed): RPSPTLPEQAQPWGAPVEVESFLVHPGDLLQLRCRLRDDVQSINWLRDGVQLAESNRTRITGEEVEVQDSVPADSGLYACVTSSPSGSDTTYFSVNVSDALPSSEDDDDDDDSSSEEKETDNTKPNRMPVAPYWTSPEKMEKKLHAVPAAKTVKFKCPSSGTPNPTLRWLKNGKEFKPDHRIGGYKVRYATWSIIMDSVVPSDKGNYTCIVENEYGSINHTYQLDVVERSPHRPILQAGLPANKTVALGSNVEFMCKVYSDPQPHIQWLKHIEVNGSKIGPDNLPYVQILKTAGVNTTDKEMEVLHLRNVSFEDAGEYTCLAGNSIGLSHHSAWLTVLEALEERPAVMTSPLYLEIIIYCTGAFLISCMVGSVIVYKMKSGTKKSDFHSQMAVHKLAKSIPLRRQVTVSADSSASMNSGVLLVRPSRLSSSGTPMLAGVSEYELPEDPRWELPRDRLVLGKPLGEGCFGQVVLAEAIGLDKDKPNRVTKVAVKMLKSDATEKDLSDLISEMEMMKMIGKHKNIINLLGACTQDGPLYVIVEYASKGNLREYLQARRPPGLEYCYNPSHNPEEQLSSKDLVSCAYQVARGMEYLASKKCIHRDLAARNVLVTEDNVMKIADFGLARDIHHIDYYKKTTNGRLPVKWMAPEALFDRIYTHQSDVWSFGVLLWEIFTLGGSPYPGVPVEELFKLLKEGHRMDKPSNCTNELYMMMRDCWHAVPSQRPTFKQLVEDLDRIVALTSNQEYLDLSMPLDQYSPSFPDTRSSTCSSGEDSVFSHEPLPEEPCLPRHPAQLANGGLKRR

[6] = target: T1, Epidermal growth factor receptor; assay: Inhibition of N-terminal GST-tagged human EGFR (d746-750AA) expressed in baculovirus using FAM-labelled peptide as substrate pre-incubated for 10 mins followed by substrate addition by mobility shift assay
NCI-H520 [7] = assay: Antiproliferative activity against human NCI-H520 cells assessed as inhibition of cell growth at 10 uM incubated for 48 hrs by MTT assay relative to control; type: functional; settings: NCI-H520, 48 h
[8] = target: Epidermal growth factor receptor (Homo sapiens, UniProt P00533, L858R); assay: Inhibition of recombinant human EGFR L858R mutant expressed in baculovirus using FAM-labelled peptide as substrate pre-incubated for 10 mins followed by substrate addition by mobility shift assay
Epidermal growth factor receptor (Homo sapiens, UniProt P00533, L858R), sequence (P00533 25-1210 L858R limits assumed): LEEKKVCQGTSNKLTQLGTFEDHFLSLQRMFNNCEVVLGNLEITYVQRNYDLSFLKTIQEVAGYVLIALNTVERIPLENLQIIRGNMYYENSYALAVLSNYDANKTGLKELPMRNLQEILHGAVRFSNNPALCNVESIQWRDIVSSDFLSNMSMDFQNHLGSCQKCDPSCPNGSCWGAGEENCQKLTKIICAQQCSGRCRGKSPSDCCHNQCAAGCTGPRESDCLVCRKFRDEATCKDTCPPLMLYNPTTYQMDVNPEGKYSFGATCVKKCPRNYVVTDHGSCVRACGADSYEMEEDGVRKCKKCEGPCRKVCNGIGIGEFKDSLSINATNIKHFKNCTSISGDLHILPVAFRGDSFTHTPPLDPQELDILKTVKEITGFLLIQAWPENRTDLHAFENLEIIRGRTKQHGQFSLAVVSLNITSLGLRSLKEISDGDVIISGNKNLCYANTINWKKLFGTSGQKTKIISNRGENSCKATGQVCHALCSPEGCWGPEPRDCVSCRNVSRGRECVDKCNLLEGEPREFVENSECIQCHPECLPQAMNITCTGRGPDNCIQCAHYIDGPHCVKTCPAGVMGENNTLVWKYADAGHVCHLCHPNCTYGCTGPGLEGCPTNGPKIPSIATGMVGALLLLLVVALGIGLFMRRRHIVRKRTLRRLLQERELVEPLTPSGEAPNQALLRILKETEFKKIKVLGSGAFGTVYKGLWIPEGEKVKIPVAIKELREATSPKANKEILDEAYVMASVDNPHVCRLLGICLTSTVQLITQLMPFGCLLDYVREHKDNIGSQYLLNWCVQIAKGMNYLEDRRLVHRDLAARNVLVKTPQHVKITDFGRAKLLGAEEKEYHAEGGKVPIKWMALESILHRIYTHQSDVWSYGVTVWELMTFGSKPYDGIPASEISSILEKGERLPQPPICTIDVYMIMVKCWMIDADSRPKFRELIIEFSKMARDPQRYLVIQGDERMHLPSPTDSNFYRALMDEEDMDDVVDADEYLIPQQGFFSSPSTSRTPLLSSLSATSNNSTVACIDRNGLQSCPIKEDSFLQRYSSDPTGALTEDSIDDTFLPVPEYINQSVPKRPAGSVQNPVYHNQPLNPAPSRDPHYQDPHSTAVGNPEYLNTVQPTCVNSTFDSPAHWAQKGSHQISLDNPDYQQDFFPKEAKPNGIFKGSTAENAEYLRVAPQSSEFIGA

[9] = target: T2, Fibroblast growth factor receptor 1; assay: Inhibition of N-terminal GST-tagged human FGFR1 cytoplasmic domain (398-822 AA) expressed in baculovirus using FAM-labelled peptide as substrate pre-incubated for 10 mins followed by substrate addition by mobility shift assay
NCI-H520 [10] = assay: Antiproliferative activity against human NCI-H520 cells incubated for 48 hrs by MTT assay; type: functional, cell-based; settings: NCI-H520, 48 h
HCC827 [11] = assay: Antiproliferative activity against human HCC827 cells assessed as inhibition of cell growth at 10 uM incubated for 48 hrs by MTT assay relative to control; type: functional; settings: HCC827, 48 h
PC-9 [12] = assay: Antiproliferative activity against human PC9 cells assessed as inhibition of cell growth at 10 uM incubated for 48 hrs by MTT assay relative to control; type: functional; settings: PC-9, 48 h
NCI-H226 [13] = assay: Antiproliferative activity against human NCI-H226 cells assessed as inhibition of cell growth at 10 uM incubated for 48 hrs by MTT assay relative to control; type: functional; settings: NCI-H226, 48 h
HCC827 [14] = assay: Antiproliferative activity against human HCC827 cells incubated for 48 hrs by MTT assay; type: functional, cell-based; settings: HCC827, 48 h
PC-9 [15] = assay: Antiproliferative activity against human PC9 cells incubated for 48 hrs by MTT assay; type: functional, cell-based; settings: PC-9, 48 h
[16] = target: T1, Epidermal growth factor receptor; assay: Inhibition of N-terminal GST-tagged human EGFR cytoplasmic domain (669-1210 AA) expressed in baculovirus at 10 uM using FAM-labelled peptide as substrate pre-incubated for 10 mins followed by substrate addition by mobility shift assay relative to control
NCI-H1581 [17] = assay: Antiproliferative activity against human NCI-H1581 cells incubated for 48 hrs by MTT assay; type: functional, cell-based; settings: NCI-H1581, 48 h
[18] = target: T1, Epidermal growth factor receptor; assay: Inhibition of N-terminal GST-tagged human EGFR cytoplasmic domain (669-1210 AA) expressed in baculovirus using FAM-labelled peptide as substrate pre-incubated for 10 mins followed by substrate addition by mobility shift assay
[19] = target: T2, Fibroblast growth factor receptor 1; settings: 10 uM
Target sequence in this assay (P11362 22-822 limits assumed): as the sequence (P11362 22-822 limits assumed) above
Description: Inhibition of FGF-induced FGFR1 phosphorylation in serum-starved human H520 cells at 10 uM incubated for 1 hr by Western blot analysis

[20] = target: T2, Fibroblast growth factor receptor 1; settings: 10 uM; remark: listed apart in the source
Target sequence in this assay (P11362 22-822 limits assumed): as above
Description: Inhibition of FGFR in serum-starved human H520 cells assessed as reduction in FGFR-induced AKT phosphorylation at 10 uM incubated for 1 hr by Western blot analysis

| SMILES | inhibition [1] [%] | IC50 (NCI-H226 [2]) [µM] | inhibition [3] [%] | inhibition at 10 µM (NCI-H1581 [4]) [%] | inhibition [5] [%] | IC50 [6] [µM] | inhibition at 10 µM (NCI-H520 [7]) [%] | IC50 [8] [µM] | IC50 [9] [µM] | IC50 (NCI-H520 [10]) [µM] | inhibition at 10 µM (HCC827 [11]) [%] | inhibition at 10 µM (PC-9 [12]) [%] | inhibition at 10 µM (NCI-H226 [13]) [%] | IC50 (HCC827 [14]) [µM] | IC50 (PC-9 [15]) [µM] | inhibition [16] [%] | IC50 (NCI-H1581 [17]) [µM] | IC50 [18] [µM] | inhibition [19] | inhibition [20] |
| --- | --- | --- | --- | --- | --- | --- | --- | --- | --- | --- | --- | --- | --- | --- | --- | --- | --- | --- | --- | --- |
| Cc1cc(F)cc(Nc2cc(NC(=O)Nc3c(Cl)cccc3Cl)ncn2)c1 | 91.9 | 2.96 | 89.7 | 65 | 70.3 | 0.253 | 60.5 | 0.174 | 1.22 | 3.78 | 49.1 | 80 | 78.1 | 18.6 | 2.79 | 79.2 | 4.78 | 0.528 |  |  |
| COc1cc(NC(=O)Nc2cc(Nc3cc(OC)ccc3OC)ncn2)cc(OC)c1 | 60 | 7.39 | 65.7 | 40.7 | 3.4 |  | 34 |  |  | 7.52 | 63 | 59.5 | 41.1 | 3.24 | 5.92 | 63.3 | 8.39 |  |  |  |
| COc1cc(Nc2cc(NC(=O)Nc3c(Cl)cccc3Cl)ncn2)cc(OC)c1 | 79.4 | 16.9 | 84.2 | 68 | 74.2 | 0.332 | 55.5 | 0.49 | 1.1 | 10.5 | 73.7 | 90 | 60 | 13.3 | 3.18 | 87.3 | 5.32 | 0.315 |  |  |
| COc1cc(NC(=O)Nc2cc(Nc3cc(C(F)(F)F)ccc3OC)ncn2)cc(OC)c1 | 73.1 | 14.6 | 54.2 | 67 | 11 |  | 63 |  |  | 4.45 | 59.7 | 81.1 | 60 | 15.1 | 6.22 | 74.6 | 7.35 |  |  |  |
| CCN1CCN(c2ccc(Nc3cc(N(C)C(=O)Nc4c(Cl)c(OC)cc(OC)c4Cl)ncn3)cc2)CC1 [INFIGRATINIB] |  |  |  | 83.7 |  |  | 77.1 |  |  |  | 32 | 55.5 | 67.3 |  |  |  |  |  | Active | Active |
| COc1cc(NC(=O)Nc2cc(Nc3cc(OC)cc(OC)c3)ncn2)cc(OC)c1 | 51.7 | 8.32 | 56.7 | 40.7 | 10.6 |  | 40.5 |  |  | 10.8 | 51.3 | 76.5 | 38.3 | 4.25 | 3.83 | 66.2 | 7.34 |  |  |  |
| COc1cc(NC(=O)Nc2cc(Nc3cc(I)ccc3OC)ncn2)cc(OC)c1 | 74 | 19.4 | 60.2 | 59 | -2.1 |  | 55 |  |  | 9.87 | 71 | 91 | 56.7 | > 20 | 3.54 | 58.7 | 8.86 |  |  |  |
